Experimental data from article PMC5218480 (PLoS ONE, 2017).

Tested on: MV-4-11 cells
Experiment: Gene expression microarray analysis (Affymetrix PrimeView) and GSEA
Assay type: cell-based, human
Design: RFU PODN (11730768_x_at) / Fold change /veh PODN (11730768_x_at) / RFU LINC00158 (11744669_a_at) / Fold change /veh LINC00158 (11744669_a_at) / RFU DUSP10 (11751237_a_at) / Fold change /veh DUSP10 (11751237_a_at) / RFU ID3 (11757404_x_at) / Fold change /veh ID3 (11757404_x_at) / RFU PLEKHG5 (11737974_s_at) / Fold change /veh PLEKHG5 (11737974_s_at) / RFU LRRC4B (11730491_at) / Fold change /veh LRRC4B (11730491_at) / RFU GIMAP4 (11747438_a_at) / Fold change /veh GIMAP4 (11747438_a_at) / RFU KRT8 (11758183_x_at) / Fold change /veh KRT8 (11758183_x_at) / RFU CNN1 (11734310_a_at) / Fold change /veh CNN1 (11734310_a_at) / RFU VPS37D (11726825_at) / Fold change /veh VPS37D (11726825_at) / RFU C10orf10 (11716522_x_at) / Fold change /veh C10orf10 (11716522_x_at) / RFU KIR2DL2 /// KIR2DL4 /// KIR2DL5A /// KIR2DL5B /// KIR2DS1 /// KIR2DS2 /// KIR2DS3 /// KIR2DS4 /// KIR3DL3 /// KIR3DL3 /// KIR3DS1 (11738374_at) / Fold change /veh KIR2DL2 /// KIR2DL4 /// KIR2DL5A /// KIR2DL5B /// KIR2DS1 /// KIR2DS2 /// KIR2DS3 /// KIR2DS4 /// KIR3DL3 /// KIR3DL3 /// KIR3DS1 (11738374_at) / RFU C1QL1 (11718748_at) / Fold change /veh C1QL1 (11718748_at) / RFU TMPRSS4 (11747572_a_at) / Fold change /veh TMPRSS4 (11747572_a_at) / RFU HAMP (11756126_x_at) / Fold change /veh HAMP (11756126_x_at) / RFU RNFT2 (11725882_a_at) / Fold change /veh RNFT2 (11725882_a_at) / RFU NR4A2 (11747474_a_at) / Fold change /veh NR4A2 (11747474_a_at) / RFU ABCC12 (11746883_a_at) / Fold change /veh ABCC12 (11746883_a_at) / RFU TMEM136 (11760407_x_at) / Fold change /veh TMEM136 (11760407_x_at) / RFU CLDN22 /// WWC2 (11732394_at) / Fold change /veh CLDN22 /// WWC2 (11732394_at) / RFU HLA-DPB1 (11760878_x_at) / Fold change /veh HLA-DPB1 (11760878_x_at) / RFU SPINT1 (11716480_a_at) / Fold change /veh SPINT1 (11716480_a_at) / RFU GAP43 (11754022_s_at) / Fold change /veh GAP43 (11754022_s_at) / RFU A4GNT (11735810_at) / Fold change /veh A4GNT (11735810_at) / RFU PRB3 (11715151_x_at) / Fold change /veh PRB3 (11715151_x_at) / RFU TUBB4B (11761932_at) / Fold change /veh TUBB4B (11761932_at) / RFU CAPN14 (11732068_a_at) / Fold change /veh CAPN14 (11732068_a_at) / RFU TMCC2 (11721928_a_at) / Fold change /veh TMCC2 (11721928_a_at) / RFU IRGQ (11745062_a_at) / Fold change /veh IRGQ (11745062_a_at) / RFU FAM174B (11720279_a_at) / Fold change /veh FAM174B (11720279_a_at) / RFU TMPRSS4 (11748680_a_at) / Fold change /veh TMPRSS4 (11748680_a_at) / RFU FAM212B (11763350_a_at) / Fold change /veh FAM212B (11763350_a_at) / RFU PLEKHG5 (11743358_a_at) / Fold change /veh PLEKHG5 (11743358_a_at) / RFU ZSCAN30 (11745921_a_at) / Fold change /veh ZSCAN30 (11745921_a_at) / RFU CMKLR1 (11741424_a_at) / Fold change /veh CMKLR1 (11741424_a_at) / RFU LOC101060620 /// MAPK8IP1 (11723275_at) / Fold change /veh LOC101060620 /// MAPK8IP1 (11723275_at) / RFU SPTSSB (11747773_x_at) / Fold change /veh SPTSSB (11747773_x_at) / RFU PRSS12 (11739890_at) / Fold change /veh PRSS12 (11739890_at) / RFU BIN1 (11741810_x_at) / Fold change /veh BIN1 (11741810_x_at) / RFU WNT11 (11732464_a_at) / Fold change /veh WNT11 (11732464_a_at) / RFU C10orf10 (11716521_a_at) / Fold change /veh C10orf10 (11716521_a_at) / RFU C5orf56 (11738089_at) / Fold change /veh C5orf56 (11738089_at) / RFU CYB561 (11721691_x_at) / Fold change /veh CYB561 (11721691_x_at) / RFU ANKRD19P (11752326_a_at) / Fold change /veh ANKRD19P (11752326_a_at) / RFU OR2T12 /// OR2T33 /// OR2T8 (11738714_s_at) / Fold change /veh OR2T12 /// OR2T33 /// OR2T8 (11738714_s_at) / RFU VCAN (11748164_a_at) / Fold change /veh VCAN (11748164_a_at) / RFU JSRP1 (11732532_at) / Fold change /veh JSRP1 (11732532_at) / RFU KRTAP10-11 (11738290_x_at) / Fold change /veh KRTAP10-11 (11738290_x_at) / RFU MYO3A (11730013_a_at) / Fold change /veh MYO3A (11730013_a_at) / RFU EBF3 (11725865_a_at) / Fold change /veh EBF3 (11725865_a_at) / RFU CAMK2N1 (11719241_x_at) / Fold change /veh CAMK2N1 (11719241_x_at) / RFU C5orf56 (11738088_a_at) / Fold change /veh C5orf56 (11738088_a_at) / RFU OLFML3 (11715873_a_at) / Fold change /veh OLFML3 (11715873_a_at) / RFU LOC100653217 /// NTM (11731650_a_at) / Fold change /veh LOC100653217 /// NTM (11731650_a_at) / RFU MAPK11 (11762145_a_at) / Fold change /veh MAPK11 (11762145_a_at) / RFU FIZ1 (11724087_x_at) / Fold change /veh FIZ1 (11724087_x_at) / RFU OASL (11726364_x_at) / Fold change /veh OASL (11726364_x_at) / RFU SOX15 (11748057_x_at) / Fold change /veh SOX15 (11748057_x_at) / RFU CD79A (11719716_a_at) / Fold change /veh CD79A (11719716_a_at) / RFU HIST1H1D (11736915_at) / Fold change /veh HIST1H1D (11736915_at) / RFU CASKIN2 (11723855_a_at) / Fold change /veh CASKIN2 (11723855_a_at) / RFU LOC730098 (11760151_x_at) / Fold change /veh LOC730098 (11760151_x_at) / RFU OR4N2 (11742367_at) / Fold change /veh OR4N2 (11742367_at) / RFU PRRT2 (11749266_a_at) / Fold change /veh PRRT2 (11749266_a_at) / RFU SNX32 (11753110_a_at) / Fold change /veh SNX32 (11753110_a_at) / RFU CDHR5 (11726645_a_at) / Fold change /veh CDHR5 (11726645_a_at) / RFU RCAN1 (11760418_a_at) / Fold change /veh RCAN1 (11760418_a_at) / RFU FAM167A (11723789_a_at) / Fold change /veh FAM167A (11723789_a_at) / RFU FAM26E (11764081_at) / Fold change /veh FAM26E (11764081_at) / RFU ISYNA1 (11749810_s_at) / Fold change /veh ISYNA1 (11749810_s_at) / RFU ACY1 (11761880_at) / Fold change /veh ACY1 (11761880_at) / RFU 11764098_at / Fold change /veh 11764098_at / RFU SAMD14 (11745864_x_at) / Fold change /veh SAMD14 (11745864_x_at) / RFU NPB (11741838_a_at) / Fold change /veh NPB (11741838_a_at) / RFU TMPRSS6 (11731388_a_at) / Fold change /veh TMPRSS6 (11731388_a_at) / RFU KRTAP10-2 (11738614_at) / Fold change /veh KRTAP10-2 (11738614_at) / RFU ARHGAP8 /// PRR5-ARHGAP8 (11727945_x_at) / Fold change /veh ARHGAP8 /// PRR5-ARHGAP8 (11727945_x_at) / RFU KRTAP5-7 /// NADSYN1 (11734609_at) / Fold change /veh KRTAP5-7 /// NADSYN1 (11734609_at) / RFU RASL12 (11751679_a_at) / Fold change /veh RASL12 (11751679_a_at) / RFU CDKN2B (11736163_a_at) / Fold change /veh CDKN2B (11736163_a_at) / RFU PRF1 (11729649_at) / Fold change /veh PRF1 (11729649_at) / RFU, ZNF638 /// ZNF638-IT1 / Fold change vs veh, ZNF638 /// ZNF638-IT1 / RFU, PANK3 / Fold change vs veh, PANK3 / RFU, SH3YL1 / Fold change vs veh, SH3YL1 / RFU, ZEB2 / Fold change vs veh, ZEB2 / RFU, NRIP1 / Fold change vs veh, NRIP1 / RFU, PTTG1IP / Fold change vs veh, PTTG1IP / RFU, CAPN2 / Fold change vs veh, CAPN2 / RFU, MED14 / Fold change vs veh, MED14 / RFU, SNORA58 / Fold change vs veh, SNORA58 / RFU, C1orf63 / Fold change vs veh, C1orf63 / RFU, LRRFIP1 / Fold change vs veh, LRRFIP1 / RFU, NDUFAF7 / Fold change vs veh, NDUFAF7 / RFU, SLC12A2 / Fold change vs veh, SLC12A2 / RFU, IBTK / Fold change vs veh, IBTK / RFU, ESF1 / Fold change vs veh, ESF1 / Fold change vs veh, TMEM50B / RFU, TAOK1 / Fold change vs veh, TAOK1 / RFU, ACBD3 / Fold change vs veh, ACBD3 / RFU, TMA16 / Fold change vs veh, TMA16 / RFU, RWDD3 / Fold change vs veh, RWDD3 / RFU, BCAT1 / Fold change vs veh, BCAT1 / RFU, EDEM3 / Fold change vs veh, EDEM3 / RFU, TMEM33 / Fold change vs veh, TMEM33 / RFU, WDR75 / Fold change vs veh, WDR75 / RFU, AHCTF1 / Fold change vs veh, AHCTF1 / RFU, TFRC / Fold change vs veh, TFRC / RFU, ZDHHC17 / Fold change vs veh, ZDHHC17 / RFU, NOM1 / Fold change vs veh, NOM1 / RFU, ARL8B / Fold change vs veh, ARL8B / RFU, ZBTB11 / Fold change vs veh, ZBTB11 / RFU, TAMM41 / Fold change vs veh, TAMM41 / RFU, KIAA1704 /// LOC100996395 / Fold change vs veh, KIAA1704 /// LOC100996395 / RFU, ING1 / Fold change vs veh, ING1 / RFU, TRMT61B / Fold change vs veh, TRMT61B / RFU, FUBP3 / Fold change vs veh, FUBP3 / RFU, TP53 / Fold change vs veh, TP53 / RFU, TNKS2 / Fold change vs veh, TNKS2 / RFU, ZFP14 / Fold change vs veh, ZFP14 / RFU, ACTR2 / Fold change vs veh, ACTR2 / RFU, PPP3R1 / Fold change vs veh, PPP3R1 / RFU, PIK3R1 / Fold change vs veh, PIK3R1 / RFU, HNRNPA1 / Fold change vs veh, HNRNPA1 / RFU, RNF170 / Fold change vs veh, RNF170 / RFU, ZNF28 / Fold change vs veh, ZNF28 / RFU, RNGTT / Fold change vs veh, RNGTT / RFU, OGT / Fold change vs veh, OGT / RFU, BRD1 / Fold change vs veh, BRD1 / RFU, MARS / Fold change vs veh, MARS / RFU, ZNF655 / Fold change vs veh, ZNF655 / RFU, FAHD1 / Fold change vs veh, FAHD1 / RFU, BDP1 / Fold change vs veh, BDP1 / RFU, LRRCC1 / Fold change vs veh, LRRCC1 / RFU, ARID1A / Fold change vs veh, ARID1A / RFU, ZNF146 / Fold change vs veh, ZNF146 / RFU, ZNF330 / Fold change vs veh, ZNF330 / RFU, GPN3 / Fold change vs veh, GPN3 / RFU, C9orf123 / Fold change vs veh, C9orf123 / RFU, N4BP2L2 / Fold change vs veh, N4BP2L2 / RFU, ARFIP1 / Fold change vs veh, ARFIP1 / RFU, FAM179B / Fold change vs veh, FAM179B / RFU, BCL10 / Fold change vs veh, BCL10 / RFU, UHRF1BP1L / Fold change vs veh, UHRF1BP1L / RFU, BET1 / Fold change vs veh, BET1 / RFU, CNOT2 / Fold change vs veh, CNOT2 / RFU, ZNF268 / Fold change vs veh, ZNF268 / Fold change vs veh, ZNF507 / RFU, DGCR2 / Fold change vs veh, DGCR2 / RFU, WDSUB1 / Fold change vs veh, WDSUB1 / Fold change vs veh, HSP90B1 /// MIR3652 / RFU, ADSS / Fold change vs veh, ADSS / RFU, GK / Fold change vs veh, GK / RFU, ZNF148 / Fold change vs veh, ZNF148 / RFU, TAF9 / Fold change vs veh, TAF9 / RFU, SLC1A5 / Fold change vs veh, SLC1A5 / RFU, SLMO2 / Fold change vs veh, SLMO2 / RFU, ABCC4 / Fold change vs veh, ABCC4 / RFU, LOC101060439 /// RAP1B / Fold change vs veh, LOC101060439 /// RAP1B / RFU, RFX7 / Fold change vs veh, RFX7 / RFU, GTPBP10 / Fold change vs veh, GTPBP10 / RFU, CNEP1R1 / Fold change vs veh, CNEP1R1 / RFU, BIVM-ERCC5 /// ERCC5 / Fold change vs veh, BIVM-ERCC5 /// ERCC5 / RFU, ILF3 / Fold change vs veh, ILF3 / RFU 11762660_at / Fold change /veh 11762660_at / RFU VCAN (11757783_s_at) / Fold change /veh VCAN (11757783_s_at) / RFU DDX43 (11728927_at) / Fold change /veh DDX43 (11728927_at) / RFU KRT8 (11758188_x_at) / Fold change /veh KRT8 (11758188_x_at) / RFU NKD1 (11759106_at) / Fold change /veh NKD1 (11759106_at) / RFU SRD5A1 (11742802_a_at) / Fold change /veh SRD5A1 (11742802_a_at) / RFU TPSAB1 /// TPSB2 (11721975_s_at) / Fold change /veh TPSAB1 /// TPSB2 (11721975_s_at) / RFU GSTM3 (11746129_a_at) / Fold change /veh GSTM3 (11746129_a_at) / RFU IL23R (11737362_x_at) / Fold change /veh IL23R (11737362_x_at) / RFU TMEM51 (11727254_a_at) / Fold change /veh TMEM51 (11727254_a_at) / RFU PIWIL2 (11732686_x_at) / Fold change /veh PIWIL2 (11732686_x_at) / RFU ORM1 (11744905_x_at) / Fold change /veh ORM1 (11744905_x_at) / RFU CCDC152 (11743942_at) / Fold change /veh CCDC152 (11743942_at) / RFU ECM1 (11717891_a_at) / Fold change /veh ECM1 (11717891_a_at) / RFU IL23R (11748794_a_at) / Fold change /veh IL23R (11748794_a_at) / RFU TNFAIP8L3 (11732012_x_at) / Fold change /veh TNFAIP8L3 (11732012_x_at) / RFU MBOAT4 (11741988_at) / Fold change /veh MBOAT4 (11741988_at) / RFU 11764193_at / Fold change /veh 11764193_at / RFU TMEM53 (11763286_at) / Fold change /veh TMEM53 (11763286_at) / RFU MAGEB2 (11727129_at) / Fold change /veh MAGEB2 (11727129_at) / RFU TMEM200A (11744735_a_at) / Fold change /veh TMEM200A (11744735_a_at) / RFU CCDC152 (11751479_a_at) / Fold change /veh CCDC152 (11751479_a_at) / RFU FAM211A (11726209_a_at) / Fold change /veh FAM211A (11726209_a_at) / RFU RGS16 (11746705_a_at) / Fold change /veh RGS16 (11746705_a_at) / RFU VCAN (11755009_s_at) / Fold change /veh VCAN (11755009_s_at) / RFU RHOB (11743442_s_at) / Fold change /veh RHOB (11743442_s_at) / RFU RGS16 (11720943_a_at) / Fold change /veh RGS16 (11720943_a_at) / RFU RGS16 (11720944_at) / Fold change /veh RGS16 (11720944_at) / RFU, VPS4B / Fold change vs veh, VPS4B / RFU, CREB1 / Fold change vs veh, CREB1 / RFU, DNAJC13 / Fold change vs veh, DNAJC13 / RFU, GNAQ / Fold change vs veh, GNAQ / RFU, CDK5R1 / Fold change vs veh, CDK5R1 / RFU, ZRANB3 / Fold change vs veh, ZRANB3 / RFU, CUL4A / Fold change vs veh, CUL4A / RFU, CCNY / Fold change vs veh, CCNY / RFU, UFL1 / Fold change vs veh, UFL1 / RFU, COG3 / Fold change vs veh, COG3 / RFU, DIAPH2 / Fold change vs veh, DIAPH2 / RFU, SKA2 / Fold change vs veh, SKA2 / RFU, AFF3 / Fold change vs veh, AFF3 / RFU, LMF1 / Fold change vs veh, LMF1 / RFU, IPO11 / Fold change vs veh, IPO11 / RFU, DFFB / Fold change vs veh, DFFB / RFU, FOXP1 / Fold change vs veh, FOXP1 / RFU, CARD8 / Fold change vs veh, CARD8 / RFU, STRN3 / Fold change vs veh, STRN3 / RFU, ADK / Fold change vs veh, ADK / RFU, RASSF2 / Fold change vs veh, RASSF2 / RFU, WIPF1 / Fold change vs veh, WIPF1 / RFU, LARP1B / Fold change vs veh, LARP1B / RFU, RASA1 / Fold change vs veh, RASA1 / RFU, RB1 / Fold change vs veh, RB1 / RFU, PPFIA1 / Fold change vs veh, PPFIA1 / RFU, MAT2A / Fold change vs veh, MAT2A / RFU, CCT5 / Fold change vs veh, CCT5 / RFU, WDR92 / Fold change vs veh, WDR92 / RFU, CUX1 / Fold change vs veh, CUX1 / RFU, TTC7A / Fold change vs veh, TTC7A / RFU, TMEM135 / Fold change vs veh, TMEM135 / RFU, DEPTOR / Fold change vs veh, DEPTOR / RFU, CPM / Fold change vs veh, CPM / RFU, DNAJB6 / Fold change vs veh, DNAJB6 / RFU, CACNA2D3 / Fold change vs veh, CACNA2D3 / RFU, DTX4 / Fold change vs veh, DTX4 / RFU, TFCP2 / Fold change vs veh, TFCP2 / RFU, GMCL1 /// GMCL1P1 / Fold change vs veh, GMCL1 /// GMCL1P1 / RFU, AEBP2 / Fold change vs veh, AEBP2 / RFU, SNHG1 /// SNORD22 /// SNORD25 /// SNORD26 /// SNORD27 /// SNORD28 /// SNORD29 /// SNORD31 / Fold change vs veh, SNHG1 /// SNORD22 /// SNORD25 /// SNORD26 /// SNORD27 /// SNORD28 /// SNORD29 /// SNORD31 / Fold change (Aza/veh), C12orf56 (ProbeSet 11735607_a_at) / Fold change (ACY-1035/veh), C12orf56 (ProbeSet 11735607_a_at) / Fold change (Aza/veh), FGFR1OP (ProbeSet 11751329_s_at) / Fold change (ACY-1035/veh), FGFR1OP (ProbeSet 11751329_s_at) / Fold change (Aza/veh), VPS36 (ProbeSet 11739960_a_at) / Fold change (ACY-1035/veh), VPS36 (ProbeSet 11739960_a_at) / RFU SYPL1 (11715823_x_at) / Fold change /veh SYPL1 (11715823_x_at) / RFU IGFBP7 (11715501_s_at) / Fold change /veh IGFBP7 (11715501_s_at) / RFU REEP3 (11722064_at) / Fold change /veh REEP3 (11722064_at) / RFU IGLL1 (11728026_x_at) / Fold change /veh IGLL1 (11728026_x_at): dose or concentration left out as unconfirmed
Settings: MV-4-11 cells, 48 hours

## Nc1ccc(-c2cccs2)cc1NC(=O)c1ccc2c(c1)cc(C1CC1)n2CCN1CCOCC1 [ACY-1035]
  RFU FAM174B (11720279_a_at): 24.40 RFU
